Test results from patent US7414072B2, “Aryl 5-thio-β-d-glucopyranoside derivatives and therapeutic agents for diabetes containing the same” (Taisho Pharmaceutical Co., Ltd., priority 2002, dated 2008).

Row | SMILES | melting point
1 | CCCCCOc1ccc(Cc2cc(Cl)ccc2O[C@@H]2S[C@H](CO)[C@@H](O)[C@H](O)[C@H]2O)cc1 [Compound 72, 4′-chloro-2′-(4′-pentyloxybenzyl)phenyl 5-thio-β-D-glucopyranoside] | 143 to 144.5 °C
2 | CS(=O)(=O)Nc1ccc(Cc2cc(Cl)ccc2O[C@@H]2S[C@H](CO)[C@@H](O)[C@H](O)[C@H]2O)cc1 [Compound 51, 4′-chloro-2′-(4′-methylsulfonylaminobenzyl)phenyl 5-thio-β-D-glucopyranoside] | 151 to 153 °C
3 | COc1ccc(CNC(=O)c2c(O)cccc2O[C@@H]2S[C@H](CO)[C@@H](O)[C@H](O)[C@H]2O)cc1 [Compound 84, 3′-hydroxy-2′-(4′-methoxybenzylaminocarbonyl)phenyl 5-thio-β-D-glucopyranoside] | 183 to 185 °C
4 | CCc1ccc(Cc2cc(Cl)cc(Cl)c2O[C@@H]2S[C@H](CO)[C@@H](O)[C@H](O)[C@H]2O)cc1 [Compound 31, 4′,6′-dichloro-2′-(4′-ethylbenzyl)phenyl 5-thio-β-D-glucopyranoside] | 72 to 80 °C
5 | COc1cc(OC)c(Cc2ccccc2O[C@@H]2S[C@H](CO)[C@@H](O)[C@H](O)[C@H]2O)c(OC)c1 [Compound 65, 2′-(2′,4′,6′-trimethoxybenzyl)phenyl 5-thio-β-D-glucopyranoside] | 100 to 105 °C
6 | OC[C@H]1S[C@@H](Oc2ccc(Cl)cc2Cc2ccc(Cl)cc2Cl)[C@H](O)[C@@H](O)[C@@H]1O [Compound 70, 4′-chloro-2′-(2′,4′-dichlorobenzyl)phenyl 5-thio-β-D-glucopyranoside] | 172 to 174 °C
7 | OC[C@H]1S[C@@H](Oc2ccc(Cl)cc2Cc2ccccc2F)[C@H](O)[C@@H](O)[C@@H]1O [Compound 44, 4′-chloro-2′-(2′-fluorobenzyl)phenyl 5-thio-β-D-glucopyranoside] | 170 to 173 °C
8 | OC[C@H]1S[C@@H](Oc2c(Cc3c(F)cccc3Cl)cc(Cl)cc2Cc2c(F)cccc2Cl)[C@H](O)[C@@H](O)[C@@H]1O [Compound 53] | 112 to 118 °C
9 | COc1ccc(Cc2cc(Cl)ccc2O[C@@H]2S[C@H](CO)[C@@H](O)[C@H](O)[C@H]2O)c(OC)c1 [Compound 80, 4′-chloro-2′-(2′,4′-dimethoxybenzyl)phenyl 5-thio-β-D-glucopyranoside] | 195.5 to 197 °C
10 | CCCCOc1ccc(Cc2cc(Cl)ccc2O[C@@H]2S[C@H](CO)[C@@H](O)[C@H](O)[C@H]2O)cc1 [Compound 45, 2′-(4′-butoxybenzyl)-4′-chlorophenyl 5-thio-β-D-glucopyranoside] | 166 to 169 °C
11 | OC[C@H]1S[C@@H](Oc2ccc(Cl)cc2Cc2ccccc2CCc2ccccc2)[C@H](O)[C@@H](O)[C@@H]1O [Compound 78] | 128 to 130 °C
12 | CCc1ccc(Cc2ccc(COC(C)=O)cc2O[C@@H]2S[C@H](CO)[C@@H](O)[C@H](O)[C@H]2O)cc1 [Compound 77, 5′-(acetoxymethyl)-2′-(4′-ethylbenzyl)phenyl 5-thio-β-D-glucopyranoside] | 158 to 160 °C
13 | OC[C@H]1S[C@@H](Oc2ccc(Cl)cc2Cc2ccccc2Cc2ccccc2)[C@H](O)[C@@H](O)[C@@H]1O [Compound 79] | 150.5 to 151.5 °C
14 | Cc1csc(Cc2ccccc2O[C@@H]2S[C@H](CO)[C@@H](O)[C@H](O)[C@H]2O)n1 [Compound 37] | 197 to 200 °C
15 | OC[C@H]1S[C@@H](Oc2ccc(Cl)cc2Cc2cccc3ccccc23)[C@H](O)[C@@H](O)[C@@H]1O [Compound 68] | 170 to 175 °C
16 | OC[C@H]1S[C@@H](Oc2ccc(Cl)cc2Cc2cccc(Oc3ccccc3)c2)[C@H](O)[C@@H](O)[C@@H]1O [Compound 62] | 124.5 to 127 °C
17 | CCc1ccc(Cc2ccc(OCOC)cc2O[C@@H]2S[C@H](CO)[C@@H](O)[C@H](O)[C@H]2O)cc1 [Compound 20, 2′-(4′-ethylbenzyl)-5′-(methoxymethyloxy)phenyl 5-thio-β-D-glucopyranoside] | 175.5 to 180 °C
18 | OC[C@H]1S[C@@H](Oc2ccc(Cl)cc2Cc2ccc(F)cc2F)[C@H](O)[C@@H](O)[C@@H]1O [Compound 60, 4′-chloro-2′-(2′,4′-difluorobenzyl)phenyl 5-thio-β-D-glucopyranoside] | 175.5 to 177 °C
19 | Cc1ccc(Nc2ccccc2O[C@@H]2S[C@H](CO)[C@@H](O)[C@H](O)[C@H]2O)cc1 [Compound 34, 2′-(p-Toluidino)phenyl 5-thio-β-D-glucopyranoside] | 152 to 153 °C
20 | OC[C@H]1S[C@@H](Oc2ccc(Cl)cc2Cc2cc(F)cc(C(F)(F)F)c2)[C@H](O)[C@@H](O)[C@@H]1O [Compound 76, 4′-chloro-2′-(3′-fluoro-5′-trifluoromethylbenzyl)phenyl 5-thio-β-D-glucopyranoside] | 126 to 129 °C
21 | CCc1ccc(Cc2ccc(O[C@@H]3S[C@H](CO)[C@@H](O)[C@H](O)[C@H]3O)cc2)cc1 [Compound 50] | 137 to 138.5 °C
22 | OC[C@H]1S[C@@H](Oc2ccc(Cl)cc2Cc2cccc(OC(F)(F)F)c2)[C@H](O)[C@@H](O)[C@@H]1O [Compound 69, 4′-chloro-2′-(3′-trifluoromethoxybenzyl)phenyl 5-thio-β-D-glucopyranoside] | 146 to 148 °C

Results, then the compound that gave them:

Row | melting point | SMILES
23 | 166 to 167.5 °C | COc1ccc(Cc2ccccc2O[C@@H]2S[C@H](CO)[C@@H](O)[C@H](O)[C@H]2O)cc1 [Compound 4, 2′-(4′-methoxybenzyl)phenyl 5-thio-β-D-glucopyranoside]
24 | 174 to 176.5 °C | CCSc1ccc(Cc2ccccc2O[C@@H]2S[C@H](CO)[C@@H](O)[C@H](O)[C@H]2O)cc1 [Compound 48, 2′-(4′-ethylthiobenzyl)phenyl 5-thio-β-D-glucopyranoside]
25 | 171 to 174 °C | OC[C@H]1S[C@@H](Oc2ccccc2Cc2ccccc2)[C@H](O)[C@@H](O)[C@@H]1O [Compound 11, 2′-benzylphenyl 5-thio-β-D-glucopyranoside]
26 | 238 to 242.5 °C | CCc1ccc(Cc2c(O)cccc2O[C@@H]2S[C@H](CO)[C@@H](O)[C@H](O)[C@H]2O)cc1 [Compound 14, 2′-(4′-ethylbenzyl)-3′-hydroxyphenyl 5-thio-β-D-glucopyranoside]
27 | 148.5 to 149.5 °C | Cn1cc(Cc2ccccc2O[C@@H]2S[C@H](CO)[C@@H](O)[C@H](O)[C@H]2O)cn1 [Compound 55]
28 | 96 to 101 °C | CCc1ccccc1Cc1ccccc1O[C@@H]1S[C@H](CO)[C@@H](O)[C@H](O)[C@H]1O [Compound 58]
29 | 147 to 149 °C | Cc1ccccc1Cc1cc(Cl)ccc1O[C@@H]1S[C@H](CO)[C@@H](O)[C@H](O)[C@H]1O [Compound 82, 4′-chloro-2′-(2′-methylbenzyl)phenyl 5-thio-β-D-glucopyranoside]
30 | 193.5 to 194 °C | CN(C)C(=O)c1ccc(Cc2ccccc2O[C@@H]2S[C@H](CO)[C@@H](O)[C@H](O)[C@H]2O)cc1 [Compound 86, 2′-(4′-N,N-dimethylaminocarbonylbenzyl)phenyl 5-thio-β-D-glucopyranoside]
31 | 148 to 148.5 °C | OC[C@H]1S[C@@H](Oc2ccccc2Cc2ccc(C3CC3)cc2)[C@H](O)[C@@H](O)[C@@H]1O [Compound 90, 2′-(4′-cyclopropylbenzyl)phenyl 5-thio-β-D-glucopyranoside]
32 | 156.5 to 160 °C | OC[C@H]1S[C@@H](Oc2ccccc2Cc2ccc(N3CCCCC3)cc2)[C@H](O)[C@@H](O)[C@@H]1O [Compound 74, 2′-(4′-piperidinobenzyl)phenyl 5-thio-β-D-glucopyranoside]
33 | 184 to 186.5 °C | OCc1ccc(Cc2ccccc2O[C@@H]2S[C@H](CO)[C@@H](O)[C@H](O)[C@H]2O)cc1 [Compound 56, 2′-(4′-hydroxymethylbenzyl)phenyl 5-thio-β-D-glucopyranoside]
34 | 172 to 173.5 °C | CCc1ccc(Cc2cc(Br)ccc2O[C@@H]2S[C@H](CO)[C@@H](O)[C@H](O)[C@H]2O)cc1 [Compound 10, 4′-bromo-2′-(4′-ethylbenzyl)phenyl 5-thio-β-D-glucopyranoside]
35 | 177 to 180 °C | Cc1ccc(Cc2ccccc2O[C@@H]2S[C@H](CO)[C@@H](O)[C@H](O)[C@H]2O)nc1 [Compound 36]
36 | 163 to 165.5 °C | CCc1ccc(Cc2cc(F)ccc2O[C@@H]2S[C@H](CO)[C@@H](O)[C@H](O)[C@H]2O)cc1 [Compound 8, 2′-(4′-ethylbenzyl)-4′-fluorophenyl 5-thio-β-D-glucopyranoside]
37 | 192 to 194 °C | OC[C@H]1S[C@@H](Oc2ccc(Cl)cc2Cc2ccc3ccccc3c2)[C@H](O)[C@@H](O)[C@@H]1O [Compound 71]
38 | 206 to 208 °C | Nc1ccc(Cc2cc(Cl)ccc2O[C@@H]2S[C@H](CO)[C@@H](O)[C@H](O)[C@H]2O)cc1 [Compound 42, 2′-(4′-aminobenzyl)-4′-chlorophenyl 5-thio-β-D-glucopyranoside]
39 | 132 to 134 °C | CCc1ccc(Cc2cccc(O[C@@H]3S[C@H](CO)[C@@H](O)[C@H](O)[C@H]3O)c2)cc1 [Compound 49]
40 | 154 to 156 °C | CCc1ccc(Cc2cc(C)ccc2O[C@@H]2S[C@H](CO)[C@@H](O)[C@H](O)[C@H]2O)cc1 [Compound 7, 2′-(4′-ethylbenzyl)-4′-methylphenyl 5-thio-β-D-glucopyranoside]
41 | 156 to 157 °C | CCc1ccc(Cc2ccc(F)cc2O[C@@H]2S[C@H](CO)[C@@H](O)[C@H](O)[C@H]2O)cc1 [Compound 64, 2′-(4′-ethylbenzyl)-5′-fluorophenyl 5-thio-β-D-glucopyranoside]
42 | 208 to 210 °C | OC[C@H]1S[C@@H](Oc2ccccc2Cc2ccc(-n3cccn3)cc2)[C@H](O)[C@@H](O)[C@@H]1O [Compound 43, 2′-(4′-pyrazol-1′-ylbenzyl)phenyl 5-thio-β-D-glucopyranoside]
43 | 235 to 236.5 °C | CC(=O)Nc1ccc(Cc2cc(Cl)ccc2O[C@@H]2S[C@H](CO)[C@@H](O)[C@H](O)[C@H]2O)cc1 [Compound 47, 2′-(4′-acetylaminobenzyl)-4′-chlorophenyl 5-thio-β-D-glucopyranoside]
44 | 157 to 158.5 °C | OC[C@H]1S[C@@H](Oc2ccccc2Cc2ccc(F)cc2)[C@H](O)[C@@H](O)[C@@H]1O [Compound 9, 2′-(4′-fluorobenzyl)phenyl 5-thio-β-D-glucopyranoside]
